Columns and labels:
[1] = system: caterpillars of the armyworm (Spodoptera frugiperda); assay: Spodoptera frugiperda test (SPODFR spray treatment); assay type: in vivo; conditions: application rate 500 g/ha, maize leaf discs, after 7 days
Description: Spodoptera frugiperda Test (SPODFR Spray Treatment)
(§1) Solvents: 78.0 parts by weight of acetone
(§2) • 1.5 parts by weight of dimethylformamide Emulsifier: 0.5 part by weight of alkylaryl polyglycol ether
To produce a suitable preparation of active compound, 1 part by weight of active compound is mixed with the stated amounts of solvents and emulsifier, and the concentrate is diluted with emulsifier-containing water to the desired concentration. Discs of maize leaves (Zea mays) are sprayed with an active compound preparation of the desired concentration and, after drying, populated with caterpillars of the armyworm (Spodoptera frugiperda).
After 7 days, the effect in % is determined. 100% means that all caterpillars have been killed; 0% means that none of the caterpillars have been killed.

[2] = Penetration of active compounds through enzymatically isolated cuticles of apple tree leaves; assay type: in vitro ADME, apple trees of the cultivar Golden Delicious; conditions: 300 ppm in DMF/emulsifier W 7:1 (w/w), 20° C., 60% rh; for Penetration after 24 h, EC + RME (1 g/l) + AS (1 g/l): + RME 1 g/l + ammonium sulphate 1 g/l; for Penetration after 24 h, EC + RME (1 g/l) + DAHP (1 g/l): + RME 1 g/l + diammonium hydrogenphosphate 1 g/l; for Penetration after 24 h, EC + AS (1 g/l): + ammonium sulphate 1 g/l; for Penetration after 24 h, EC + DAHP (1 g/l): + diammonium hydrogenphosphate 1 g/l; for Penetration after 24 h, EC + RME (1 g/l): + rapeseed oil methyl ester 1 g/l; for Penetration after 24 h, EC: EC alone
Description: Example 8: Increase of Penetration into the Plant by Ammonium or Phosphonium Salts and Synergistic Increase of Penetration into the Plant by Ammonium Salts in Combination with Penetrants
In this test, the penetration of active compounds through enzymatically isolated cuticles of apple tree leaves is measured.
Use is made of leaves which, fully developed, are cut from apple trees of the cultivar Golden Delicious. The cuticles are isolated by • initially filling leaf discs punched out and stained with dye on the underside by vacuum infiltration with a pectinase solution (0.2 to 2% strength) buffered to pH between 3 and 4, • then adding sodium azide and • allowing the leaf discs treated in this manner to stand until the original leaf structure has dissolved and the non-cellular cuticles have detached.
Only the cuticles, free from hairs and stoma, of the upper sides of the leaves are then used further. They are washed repeatedly alternately with water and a buffer solution of pH 7. The clean cuticles obtained are then mounted on Teflon plates and smoothed and dried with a gentle stream of air.
In the next step, the cuticle membranes obtained in this manner are placed into stainless steel diffusion cells (=transport chambers) for membrane transport studies. To this end, the cuticles are placed with a pincette into the centre of the edges, coated with silicone fat, of the diffusion cells and closed with a ring, which is also treated with fat. The arrangement is chosen such that the morphological outside of the cuticles is facing outwards, i.e. is exposed to air, whereas the original inside is facing the interior of the diffusion cell.
The diffusion cells are filled with a 30% strength ethylene glycol/water solution. To determine the penetration, in each case 10 μl of the spray liquor of the composition below are applied to the outside of the cuticles. The spray liquor is prepared using local tap water of medium hardness.
After the application of the spray liquors, the water is allowed to evaporate and the chambers are inverted and placed into thermostated tubs in which the temperature and atmospheric humidity over the cuticles can be adjusted using a gentle stream of air onto the cuticles with the spray coating (20° C., 60% rh). At regular intervals, an autosampler takes aliquots and the active compound content is determined by HPLC.
The stated numbers are average values of 8 to 10 measurements. It is clearly evident that even ammonium sulphate on its own improves the penetration markedly, and that, together with RME, a superadditive (synergistic) effect is present.

[3] = system: Lolium multiflorum; assay: Herbicidal pre-emergence action; assay type: in vivo; conditions: pre-emergence method, 320 g of a.i./ha; about 3 weeks
Excerpt: (§3) 1. Herbicidal Pre-Emergence Action
(§4) • Seeds of monocotyledonous and dicotyledonous weed and crop plants are placed in sandy loam in wood fibre pots and covered with soil. The test compounds, formulated in the form of wettable powders (WP), are then, as aqueous suspension with a water application rate of 600 l/ha (converted), with 0.2% of wetting agent added, applied to the surface of the covering soil in various dosages. • After the treatment, the pots are placed in a greenhouse and kept under good growth conditions for the test plants. The visual assessment of the emergence damage on the test plants is carried out after a trial period of about 3 weeks by comparison with untreated controls (herbicidal effect in %: 100% effect=the plants have died, 0% effect=like control plants). • In addition to the compounds mentioned above, the following compounds, applied by the pre-emergence method at 320 g of a.i./ha, show an efficacy of 90% against Lolium multiflorum and Setaria viridis: I-1-a-1 • In addition to the compounds mentioned above, the following compounds, applied by the pre-emergence method at 320 g of a.i./ha, show an efficacy of 100% against Echinocloa crus-galli: I-a-2, I-b-1, I-b-2, I-c-2 2. Herbicidal Post-Emergence Action • Seeds of monocotyledonous and dicotyledonous weed and crop plants are placed in sandy loam in wood fibre pots, covered with soil and cultivated in a greenhouse under good growth conditions. 2-3 weeks after sowing, the test plants are treated at the one-leaf stage. The test compounds, formulated as wettable powders (WP), are, in various dosages at a water application rate of 600 l/ha (converted), with 0.2% of wetting agent added, sprayed onto the green parts of the plants. After the test plants have been kept in the greenhouse under optimum growth conditions for about 3 weeks, the effect of the preparations is rated visually in comparison to untreated controls (herbicidal effect in %: 100% effect=the plants have died, 0% effect=like control plants). • In addition to the compounds mentioned above, the following compounds, applied by the post-emergence method at 80 g/ha, show an efficacy of 90% against Echinocloa crus-galli and Lolium multiflorum: I-a-3, I-a-4, I-a-5.

[4] = system: Setaria viridis; assay: Herbicidal pre-emergence action; assay type: in vivo; conditions: pre-emergence method, 320 g of a.i./ha; about 3 weeks
Excerpt: as §3, §4

[5] = system: greenhouse red spidermite (Tetranychus urticae); assay: Tetranychus test OP-resistant (TETRUR spray treatment); assay type: in vivo; conditions: application rate 100 g/ha, bean leaf discs, after 6 days
Description: Tetranychus Test OP-Resistant (TETRUR Spray Treatment)
as §1, §2
To produce a suitable preparation of active compound, 1 part by weight of active compound is mixed with the stated amounts of solvents and emulsifier, and the concentrate is diluted with emulsifier-containing water to the desired concentration. Discs of bean leaves (Phaseolus vulgaris) which are infested by all stages of the greenhouse red spidermite (Tetranychus urticae) are sprayed with an active compound preparation of the desired concentration.
After 6 days, the effect in % is determined. 100% means that all spidermites have been killed; 0% means that none of the spidermites have been killed.

[6] = system: Echinocloa crus-galli; assay: Herbicidal pre-emergence action; assay type: in vivo; conditions: pre-emergence method, 320 g of a.i./ha; about 3 weeks
Excerpt: as §3, §4

Row | Structure (SMILES) | efficacy (effect in %, caterpillars killed) [1] | Penetration after 24 h, EC + RME (1 g/l) + AS (1 g/l) [2] | Penetration after 24 h, EC + RME (1 g/l) + DAHP (1 g/l) [2] | Penetration after 24 h, EC + AS (1 g/l) [2] | Penetration after 24 h, EC + DAHP (1 g/l) [2] | Penetration after 24 h, EC + RME (1 g/l) [2] | Penetration after 24 h, EC [2] | efficacy (herbicidal effect in %) [3] | efficacy (herbicidal effect in %) [4] | efficacy (effect in %, spidermites killed) [5] | efficacy (herbicidal effect in %) [6]
1 | CON1CCC2(CC1)NC(=O)C(c1c(C)ccc(-c3ccc(F)cc3)c1C)=C2O [I-a-1] | 83% | 19% | 15% | 3.8% | 2.3% | 0.8% | <0.2% | 90% | 90% | – | –
2 | CCON1CCC2(CC1)NC(=O)C(c1c(C)ccc(-c3ccc(F)cc3)c1C)=C2O [I-a-2] | 100% | 17% | 21% | 3.8% | 3.9% | 1.7% | 1.4% | – | – | 100% | 100%

Reference: US9809542B2, “Spiroheterocyclically substituted tetramic acid derivatives” (BAYER INTELLECTUAL PROPERTY GMBH, priority 2010, dated 2017)
